One molecule from US20240327379A1, “MANDELATE FORM OF 1-(4-(((6-AMINO-5-(4-PHENOXYPHENYL)PYRIMIDIN-4-YL)AMINO)METHYL)PIPERIDIN-1-YL)PROP-2-EN-1-ONE” (Sandoz AG, priority 2021, published 2024) can be followed below.

The nature of data set [1]: Gravimetric moisture sorption (GMS). It is filed as physicochemical. Conditions: (25±0.1)° C. The procedure:
Gravimetric moisture sorption was performed with an SPSx-1μ moisture sorption analyzer (ProUmid, Ulm). The measurement cycle was started at ambient relative humidity (RH) of 30%. RH was then decreased to 5% in 5% steps, followed by a further decrease to 3% and to 0%. […] Finally, RH was increased to ambient relative humidity of 30% in 5% steps. The time per step was set to a minimum of 2 hours and a maximum of 6 hours. If an equilibrium condition with a constant mass of =0.01% within 1 hour was reached before the maximum time for all examined samples the sequential humidity step was applied before the maximum time of 6 hours. If no equilibrium was achieved the consecutive humidity step was applied after the maximum time of 6 hours. The temperature was (25±0.1)° C.

Data set [2] is described as follows: Thermogravimetric analysis (TGA). The data set is classed as physicochemical. The conditions noted are these: heated from 25° C. at 10 K/min, nitrogen purge. The procedure: TGA was performed on a Mettler TGA/DSC 1 instrument. The sample (6.53 mg) was heated in a 100 microliter aluminium pan, closed with an aluminium lid, from 25 to 250° C. at a rate of 10 K/min. The lid was automatically pierced at the beginning of the measurement. Nitrogen (purge rate 30 mL/min) was used as purge gas.

With `C=CC(=O)N1CCC(CNc2ncnc(N)c2-c2ccc(Oc3ccccc3)cc2)CC1` [crystalline evobrutinib mandelate form], the hygroscopic behaviour entry in data set [1] (GMS 0-90% RH) is reported as “slightly hygroscopic”. In addition, the “physical stability during moisture sorption/desorption (hysteresis, PXRD after the experiment)” value in data set [1] (GMS cycle 0-90% RH, PXRD after the experiment) is on record as “no structural changes appear during the experiment”. For the same molecule, in data set [1] (GMS sorption cycle, 0 to 80% RH), the “mass difference in the sorption cycle between 0 and 80% RH” value is “about 0.5 w-%”. The “maximum uptake between 0 and 90% RH” value in data set [1] (GMS, 0 to 90% RH) is given as “about 0.6%”. Moreover, in data set [2], the “mass loss from the beginning of the measurement until about 170° C.” value is listed as “about 0.1%”.
